Read-outs that look alike come from different tables or passages of the source.
Columns and labels:
[1] = tested on: carrageenin-induced edema; assay: Duration of anti-inflammatory activity (carrageenin edema at varied premedication times); format: in vivo, male rats of the Wistar strain; details: for Rate of suppression of edema in rats premedicated at various times: Table 3, dose = ED50
Description: The premedication time was defined as the time interval between the administration of a test compound and the injection of carrageenin.

Safety margin LD50/ED50 = details: for Safety margin, LD50/ED50: Table 1
Method: (§1) Anti-inflammatory activity was tested as follows: Male rats of the Wistar strain were used in groups of 7. A test compound was suspended in a 0.2% carboxymethyl cellulose solution and orally administered in a dose of 0.5 ml/100 g of body weight. […] Three hours after injection of carrageenin, each rat was sacrificed by ether. The feet of both hind legs were amputated at the ankle joint and weighed to detect the difference in weight between both feet. Then, the ability of the test compound to suppress the carrageenin-induced edema was evaluated by comparing the foot weight difference of the test group with that of a control group (consisting of rats to which the solvent alone was administered). Specifically, the rate of suppression of the edema was calculated according to the following equation: [formula]
A test compound was suspended in a 0.2% carboxymethyl cellulose solution and orally administered in a dose of 0.1 ml/10 g of body weight. […] The LD50 value was calculated on the basis of the death rates on the final day.

[2] = prior art, in words; cited from earlier work
mice = assay: in vivo; format: in vivo; details: Table 5; for LD50: observed for 7 days; for Number of deaths / total number of test animals: p.o.
in vivo [3] = details: for selectivity ratio: rat, in vivo, po
Method: as §1
The incidence of gastric disorders in rats was tested as follows: Eight-weeks-old male rats of the Wistar strain were used in groups of 5 to 7. After they were fasted for 18 hours or more, a test compound was administered orally. Six hours later, each rat was sacrificed by decapitation. The stomach was removed, filled with 10 ml of physiological saline, and then fixed in 5% formalin. After about 10 minutes, the stomach was incised through the greater curvature and the presence or absence of gastric disorders (in particular, erosion) was examined by visual observation. According to Litchfield-Wilcoxon's method, the dose causing erosion to occur in 50% of the test animals, UD50, was calculated on an all-or-none basis.

[4] = tested on: carrageenin-induced edema; assay: Anti-inflammatory activity: suppression of carrageenin-induced edema in the rat hind foot; format: in vivo, male rats of the Wistar strain
in vivo [5] = format: in vivo; details: mouse, in vivo; Table 1; mice, oral, 7 days; read-out: Acute toxicity, LD50
[6] = Incidence of gastric disorders (erosion) in rats; format: in vivo, male rats of the Wistar strain; details: rat, in vivo, po
Description: (§2) Six hours later, each rat was sacrificed by decapitation.

[7] = tested on: gastric disorders (erosion); assay: Incidence of gastric disorders (erosion) in rats; format: in vivo, male rats of the Wistar strain; details: Table 1; rats, oral
Description: as §2

[8] = in words, among the compounds of Table 1

SMILES	Rate of suppression of edema in rats premedicated at various times ([1]; premedication 1 hr.)	Rate of suppression of edema in rats premedicated at various times ([1]; premedication 3 hr.)	Rate of suppression of edema in rats premedicated at various times ([1]; premedication 6 hr.)	Rate of suppression of edema in rats premedicated at various times ([1]; premedication 24 hr.)	Safety margin compared with indomethacin and diclofenac (Safety margin LD50/ED50; in words)	Rate of suppression of edema in rats premedicated at various times ([1]; premedication 48 hr.)	LD50 (mice)	selectivity ratio (in vivo [3])	other results
O=C(O)Cc1ccccc1Nc1c(Cl)cccc1Cl [Diclofenac]	45.9%	24.7%	17.6%	-1.2%					
CN1C(C(=O)Nc2ccccn2)C(=O)c2ccccc2S1(=O)=O (centres unmarked) [Piroxicam, 3,4-dihydro-2-methyl-4-oxo-N-(2-pyridyl)-2H-1,2-benzothiazine-3-carboxamide 1,1-dioxide]			40.0%		superior	1.7%	490 mg/kg, p.o.		Anti-inflammatory activity [2]: potent and long-lasting
Cc1cc(NC(=O)C2C(=O)c3ccccc3S(=O)(=O)N2C)no1 (centres unmarked) [Isoxicam, 3,4-dihydro-2-methyl-N-(5-methyl-3-isoxazolyl)-4-oxo-2H-1,2-benzothiazine-3-carboxamide 1,1-dioxide]					superior	1.1%	5,000 mg/kg, p.o.		Anti-inflammatory activity compared with Piroxicam and Sudoxicam [2]: lower
Cc1cccc(NC(=O)C2C(=O)c3ccccc3S(=O)(=O)N2C)n1 (centres unmarked) [6-Methyl-2-pyridyl compound, N-(6-methyl-2-pyridyl)-3,4-dihydro-2-methyl-4-oxo-2H-1,2-benzothiazine-3-carboxamide 1,1-dioxide]								1.1	
CN1C(C(=O)Nc2cccc(Cl)n2)C(=O)c2ccccc2S1(=O)=O (centres unmarked) [Compound of formula (1), N-(6-chloro-2-pyridyl)-3,4-dihydro-2-methyl-4-oxo-2H-1,2-benzothiazine-3-carboxamide 1,1-dioxide]	55.7%	54.9%	48.3%	22.6%	superior	9.8%		30.8	selectivity ratio (Safety margin LD50/ED50; in vivo, po): 615; Degree of safety (Safety margin LD50/ED50; in words): very high degree of safety; Safety margin (Safety margin LD50/ED50; [8]): remarkably high; inhibition in vivo at 2 mg/kg ([4]; Rattus norvegicus, po, 3 h, Table 2, 2.0 mg/kg, p.o., read-out: Rate of suppression of edema): 19.4%; inhibition in vivo at 4 mg/kg ([4]; Rattus norvegicus, po, 3 h, Table 2, 4.0 mg/kg, p.o., read-out: Rate of suppression of edema): 43.6%; inhibition in vivo at 8 mg/kg ([4]; Rattus norvegicus, po, 3 h, Table 2, 8.0 mg/kg, p.o., read-out: Rate of suppression of edema): 50.6%; inhibition in vivo at 16 mg/kg ([4]; Rattus norvegicus, po, 3 h, Table 2, 16.0 mg/kg, p.o., read-out: Rate of suppression of edema): 71%; ED50 ([4]; Rattus norvegicus, po, read-out: Dose producing 50% suppression, ED50, Table 2, carrageenin 1 h after compound, read 3 h later): 6.5 mg/kg; ED50 ([4]; Table 1, rat carrageenin edema, oral, read-out: Anti-inflammatory activity, ED50): 6.5 mg/kg; Anti-inflammatory activity ([4]; in words): potent and long-lasting; Rate of suppression of edema in rats premedicated at various times ([1]; premedication 12 hr.): 40.3%; Duration of anti-inflammatory activity ([1]; in words): excellent; Number of deaths / total number of test animals (mice; 1,000 mg/kg): 0/5; Number of deaths / total number of test animals (mice; 3,000 mg/kg): 2/5; Number of deaths / total number of test animals (mice; 5,000 mg/kg): 3/5; LD50 at 168 h (in vivo [5]): 4000 mg/kg; Therapeutic index compared with indomethacin and diclofenac (in vivo [3]; in words): superior; Therapeutic index (in vivo [3]; [8]): remarkably high; TD50 at 6 h [6]: 200 mg/kg
COc1ccc2c(c1)c(CC(=O)O)c(C)n2C(=O)c1ccc(Cl)cc1 [Indomethacin]	49.4%	57.6%	29.4%	-3.5%				1.2	Safety margin, LD50/ED50 (Safety margin LD50/ED50): 3.7; Rate of suppression of edema in rats premedicated at various times ([1]; premedication 12 hr.): 18.8%
CN1C(C(=O)Nc2nccs2)C(=O)c2ccccc2S1(=O)=O (centres unmarked) [Sudoxicam, 3,4-dihydro-2-methyl-4-oxo-N-(2-thiazolyl)-2H-1,2-benzothiazine-3-carboxamide 1,1-dioxide]					superior	-2.4%	500 mg/kg, p.o.	2.3	Safety margin, LD50/ED50 (Safety margin LD50/ED50): 98; Anti-inflammatory activity [2]: potent and long-lasting; Degree of toxicity and incidence of gastric disorders compared with indomethacin and diclofenac [2]: not appreciably different; Therapeutic index compared with indomethacin and diclofenac (in vivo [3]; in words): superior; Gastric disorders, UD50 [7]: 11.8 mg/kg
